The text below walks through data of patent US11524960B2, “Heterobicyclic inhibitors of MAT2A and methods of use for treating cancer” (AGIOS PHARMACEUTICALS, INC., priority 2018, dated 2022).

The structures appear in SMILES notation. Some results are limits rather than exact numbers.

This assay deals with T1, MAT2A homodimer (Homo sapiens, UniProt P31153).
T1 construct: inferred from Ni sepharose purification and imidazole elution; made in house; host or cells: Sf9 insect cells, recombinant baculovirus (Bac to Bac, pFASTBAC1)
T1 sequence (P31153 whole entry): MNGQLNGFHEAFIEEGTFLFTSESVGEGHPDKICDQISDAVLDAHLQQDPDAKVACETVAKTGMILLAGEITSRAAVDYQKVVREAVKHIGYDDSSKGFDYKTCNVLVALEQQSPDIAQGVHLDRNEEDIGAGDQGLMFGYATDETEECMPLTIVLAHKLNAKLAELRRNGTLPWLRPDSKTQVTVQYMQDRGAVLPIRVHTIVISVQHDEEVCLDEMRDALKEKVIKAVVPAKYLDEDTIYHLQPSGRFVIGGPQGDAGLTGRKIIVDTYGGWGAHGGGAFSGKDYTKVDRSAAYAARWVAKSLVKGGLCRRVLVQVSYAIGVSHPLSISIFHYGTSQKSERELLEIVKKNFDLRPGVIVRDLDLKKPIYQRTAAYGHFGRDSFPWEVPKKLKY
Put plainly: Biochemical assay: inhibition of MAT2A (phosphate release, PiColorLock Gold). The note with it: MAT2A IC50 score; read-out: Enzyme Inhibition (Example 275). On the procedure: Mat2A protein was expressed by recombinant baculovirus in SF9 infected cells using the Bac to Bac system cloned into the pFASTBAC1 vector (Invitrogen, Carlsbad, Calif.). Recombinant MAT2A was isolated from the cell lysate of 150 g of infected cells using HP Ni sepharose column chromatography. Recombinant MAT2A homodimer was eluted with 250 and 500 mM imidazole, and fractions containing MAT2A were identified by sodium dodecyl sulfate polyacrylamide gel electrophoresis and pooled.
For determination of the inhibitory potency of compounds against the MAT2A homodimer, protein was diluted to […] in assay buffer (50 mM Tris, pH 8.0, 50 mM KCl, 15 mM MgCl2, 0.3 mM EDTA, 0.005% [w/v] bovine serum albumin [BSA]). Test compound was prepared in 100% dimethyl sulfoxide (DMSO) at 50× the desired final concentration. […] of compound dilution was added to 40 μL of enzyme dilution and the mixture was allowed to equilibrate for 60 minutes at 25° C. The enzymatic assay was initiated by the addition of 10 μL of substrate mix (500 μM ATP, pH 7.0, 400 μM L-methionine in 1× assay buffer), and the mixture was incubated for a further 60 minutes at 25° C. The reaction was halted and the liberated phosphate released by the enzyme in stoichiometric amounts by the production of S-adenosyl methionine (SAM) was measured using the PiColorLock Gold kit (Innova Biosciences, UK). Absolute product amounts were determined by comparison to a standard curve of potassium phosphate buffer, pH 8.0.
As to `COc1ccc(N2Cc3cnc(SCC4CC4)nc3C3(CCN(Cc4cc[nH]n4)C3)C2=O)cc1` (stereo not drawn) [Example 115, 1′-((1H-pyrazol-3-yl)methyl)-2-((cyclopropylmethyl)thio)-6-(4-methoxyphenyl)-5H-spiro[pyrido[4,3-d]pyrimidine-8,3′-pyrrolidin]-7(6H)-one], the IC50 fell in the range of 100 to 1000 nM.

In the case of `O=c1c(-c2ccc(OC(F)F)cc2)c2nc(N3CCC3)ncc2cn1-c1ccc2ncccc2c1` [Example 185, 2-(azetidin-1-yl)-8-(4-(difluoromethoxy)phenyl)-6-(quinolin-6-yl)pyrido[4,3-d]pyrimidin-7(6)-one], the IC50 lay within 1000 to 10000 nM.

Take `COc1ccc(-c2c(=O)n(-c3cnoc3)cc3cnc(NCC(F)(F)F)nc23)cc1` [Example 207, 6-(isoxazol-4-yl)-8-(4-methoxyphenyl)-2-((2,2,2-trifluoroethyl)amino)pyrido[4,3-d]pyrimidin-7(6H)-one]: the IC50 fell in the range of 100 to 1000 nM.

In the case of `O=c1c(-c2ccc(Cl)cc2)c2nc(NCC(F)(F)F)ncc2cn1-c1ccn2nccc2c1` [Example 130, 8-(4-chlorophenyl)-6-(pyrazolo[1,5-a]pyridin-5-yl)-2-(2,2,2-trifluoroethylamino)pyrido[4,3-d]pyrimidin-7(6H)-one], the IC50 was below 100 nM.

Take `COc1ccc(N2Cc3cnc(NCC4CC4)nc3C3(CCN(Cc4cc[nH]n4)C3)C2=O)cc1` (stereo not drawn) [Example 101, 1′-((1H-pyrazol-3-yl)methyl)-2-((cyclopropylmethyl)amino)-6-(4-methoxyphenyl)-5H-spiro[pyrido[4,3-d]pyrimidine-8,3′-pyrrolidin]-7(6H)-one]: the IC50 lay within 100 to 1000 nM.

For the compound `COCc1ccc2cn(-c3ccc4nn(C)cc4c3)c(=O)c(-c3ccc(Cl)cc3)c2n1` [Example 136-A, 8-(4-chlorophenyl)-2-(methoxymethyl)-6-(2-methyl-2H-indazol-5-yl)-1,6-naphthyridin-7(6H)-one], the IC50 was below 100 nM.

`COc1ccc(N2Cc3cnc(NCC4CC4)nc3C3(CCN(Cc4cscn4)C3)C2=O)cc1` (stereo not drawn) [Example 103, 2-((cyclopropylmethyl)amino)-6-(4-methoxyphenyl)-1′-(thiazol-4-ylmethyl)-5H-spiro[pyrido[4,3-d]pyrimidine-8,3′-pyrrolidin]-7(6H)-one]: the IC50 was 100 to 1000 nM.

On to `COC(=O)C1CC(N2CCC3(C2)C(=O)N(c2ccc(OC)cc2)Cc2cnc(NCC4CC4)nc23)C1` (stereo not drawn) [Example 105, methyl 3-(2-((cyclopropylmethyl)amino)-6-(4-methoxyphenyl)-7-oxo-6,7-dihydro-5H-spiro[pyrido[4,3-d]pyrimidine-8,3′-pyrrolidin]-1′-yl)cyclobutanecarboxylate], for which the IC50 lay in the range of 1000 to 10000 nM.

As for `O=c1c(-c2ccc(C3CC3)cc2)c2nc(NCC(F)(F)F)ncc2cn1-c1ccc2nccn2c1` [Example 165, 8-(4-cyclopropylphenyl)-6-(imidazo[1,2-a]pyridin-6-yl)-2-((2,2,2-trifluoroethyl)amino)pyrido[4,3-d]pyrimidin-7(6)-one], the IC50 is below 100 nM.

For the compound `COc1cc(CN2Cc3cnc(NCC4CC4)nc3C3(CCN(Cc4ccccc4F)C3)C2=O)ccn1` (stereo not drawn) [Example 119, 2-((cyclopropylmethyl)amino)-1′-(2-fluorobenzyl)-6-((2-methoxypyridin-4-yl)methyl)-5,6-dihydro-7H-spiro[pyrido[4,3-d]pyrimidine-8,3′-pyrrolidin]-7-one], the IC50 was in the range of 1000 to 10000 nM.

In the case of `Cn1cc2cc(-n3cc4cnc(NCC(F)(F)F)nc4c(-c4ccc(Cl)cc4)c3=O)cnc2n1` [Example 126, 8-(4-chlorophenyl)-6-(2-methyl-2H-pyrazolo[3,4-b]pyridin-5-yl)-2-((2,2,2-trifluoroethyl)amino)pyrido[4,3-d]pyrimidin-7(6H)-one], the IC50 was in the range of 1000 to 10000 nM.

Regarding `CCNc1ncc2cn(-c3ccc4nn(C)cc4c3)c(=O)c(-c3ccc(OC(F)(F)F)cc3)c2n1` [Example 170, 2-(ethylamino)-6-(2-methyl-2H-indazol-5-yl)-8-(4-(trifluoromethoxy)phenyl)pyrido[4,3-d]pyrimidin-7(6H)-one], the IC50 was below 100 nM.

Take `COc1ccc(CN2Cc3cnc(NCC4CC4)nc3C3(CCN(Cc4ccccc4)C3)C2=O)cc1` (stereo not drawn) [Example 118, 1′-benzyl-2-((cyclopropylmethyl)amino)-6-(4-methoxybenzyl)-5,6-dihydro-7H-spiro[pyrido[4,3-d]pyrimidine-8,3′-pyrrolidin]-7-one]: the IC50 fell in the range of 1000 to 10000 nM.

Turning to `Cc1ccc2cc(-n3cc4cnc(NCC(F)(F)F)nc4c(-c4ccc(C5CC5)cc4)c3=O)ccc2n1` [Example 162, 8-(4-cyclopropylphenyl)-6-(2-methylquinolin-6-yl)-2-((2,2,2-trifluoroethyl)amino)pyrido[4,3-d]pyrimidin-7(6H)-one], the IC50 is below 100 nM.

Turning to `O=C1N(c2cnoc2)Cc2cnc(NCC3CC3)nc2C12CCN(Cc1ccccc1F)C2` (stereo not drawn) [Example 121, 2-((cyclopropylmethyl)amino)-1′-(2-fluorobenzyl)-6-(isoxazol-4-yl)-5,6-dihydro-7H-spiro[pyrido[4,3-d]pyrimidine-8,3′-pyrrolidin]-7-one], the IC50 lay within 100 to 1000 nM.

Turning to `O=c1c(-c2ccc(C3CC3)cc2)c2nc(NCC(F)(F)F)ncc2cn1-c1ccc2nc(C(F)(F)F)ccc2c1` [Example 163, 8-(4-cyclopropylphenyl)-2-((2,2,2-trifluoroethyl)amino)-6-(2-(trifluoromethyl)quinolin-6-yl)pyrido[4,3-d]pyrimidin-7(6H)-one], the IC50 lay within 1000 to 10000 nM.

On to `CCCNc1ncc2cn(-c3ccc(OC)cc3)c(=O)c(-c3ccc(Br)cc3)c2n1` [Example 191, 8-(4-bromophenyl)-6-(4-methoxyphenyl)-2-(propylamino)pyrido[4,3-d]pyrimidin-7(6H)-one], for which the IC50 was below 100 nM.

Turning to `O=c1c(-c2ccc(OC(F)F)cc2)c2nc(SCC(F)(F)F)ncc2cn1-c1ccc2ncccc2c1` [Example 274, 8-(4-(difluoromethoxy)phenyl)-6-(quinolin-6-yl)-2-(2,2,2-trifluoroethylthio)pyrido[4,3-d]pyrimidin-7(6H)-one], the IC50 is below 100 nM.

Take `O=c1c(-c2ccc(Cl)cc2)c2nc(NCC(F)(F)F)ncc2cn1-c1ccc2nncn2c1` [Example 136, 6-([1,2,4]triazolo[4,3-a]pyridin-6-yl)-8-(4-chlorophenyl)-2-((2,2,2-trifluoroethyl)amino)pyrido[4,3-d]pyrimidin-7(6H)-one]: the IC50 was in the range of 100 to 1000 nM.

In the case of `CNc1ncc2cn(-c3ccc4ncccc4c3)c(=O)c(-c3ccc(OC(F)F)cc3)c2n1` [Example 184, 8-(4-(difluoromethoxy)phenyl)-2-(methylamino)-6-(quinolin-6-yl)pyrido[4,3-d]pyrimidin-7(6H)-one], the IC50 was below 100 nM.

Turning to `COc1ccc(N2Cc3cnc(NCC4CC4)nc3C3(CCN(Cc4cn[nH]c4)C3)C2=O)cc1` (stereo not drawn) [Example 102, 1′-((1H-pyrazol-4-yl)methyl)-2-((cyclopropylmethyl)amino)-6-(4-methoxyphenyl)-5H-spiro[pyrido[4,3-d]pyrimidine-8,3′-pyrrolidin]-7(6H)-one], the IC50 fell in the range of 1000 to 10000 nM.

Turning to `COc1ccc(-n2cc3cnc(NCC4CC4)nc3c(-c3ccc(Br)cc3)c2=O)cc1` [Example 190, 8-(4-bromophenyl)-2-((cyclopropylmethyl)amino)-6-(4-methoxyphenyl)pyrido[4,3-d]pyrimidin-7(6H)-one], the IC50 was below 100 nM.

On to `COc1ccc(-c2c(=O)n(-c3cn[nH]c3)cc3cnc(NCC(F)(F)F)nc23)cc1` [Example 208, 8-(4-methoxyphenyl)-6-(H-pyrazol-4-yl)-2-((2,2,2-trifluoroethyl)amino)pyrido[4,3-d]pyrimidin-7(6H)-one], for which the IC50 was below 100 nM.

On to `COc1ccc(N2Cc3cnc(NCC(F)(F)F)nc3C3(CCN(c4nnc(N)s4)CC3)C2=O)cc1` [Example 117, 1-(5-amino-1,3,4-thiadiazol-2-yl)-6′-(4-methoxyphenyl)-2′-((2,2,2-trifluoroethyl)amino)-5′H-spiro[piperidine-4,8′-pyrido[4,3-d]pyrimidin]-7′(6′H)-one], for which the IC50 fell in the range of 1000 to 10000 nM.

In the case of `COc1ccc(-n2cc3cnc(N(C)CC(F)(F)F)nc3c(-c3ccc(Br)cc3)c2=O)cc1` [Example 187, 8-(4-bromophenyl)-6-(4-methoxyphenyl)-2-(methyl(2,2,2-trifluoroethyl)amino)pyrido[4,3-d]pyrimidin-7(6H)-one], the IC50 fell in the range of 1000 to 10000 nM.

As to `COc1ccc(-c2c(=O)n(-c3ccc(=O)n(C)c3)cc3cnc(NCC(F)(F)F)nc23)cc1` [Example 194, 8-(4-methoxyphenyl)-6-(1-methyl-6-oxo-1,6-dihydropyridin-3-yl)-2-((2,2,2-trifluoroethyl)amino)pyrido[4,3-d]pyrimidin-7(6H)-one], the IC50 is 100 to 1000 nM.

For the compound `O=c1c(-c2ccc(OC(F)F)cc2)c2nc(NCC(F)(F)F)ncc2cn1-c1ccc2nn(C3CC3)cc2c1` [Example 154, 6-(2-cyclopropyl-2H-indazol-5-yl)-8-(4-(difluoromethoxy)phenyl)-2-((2,2,2-trifluoroethyl)amino)pyrido[4,3-d]pyrimidin-7(6H)-one], the IC50 is below 100 nM.
